Assay results taken from ChEMBL document CHEMBL1201862, “PubChem BioAssay data set” (2004).
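Five compound concentrations were applied to cells in 96-well plates for 48 hours; endpoints were derived by simple linear interpolation of the resulting dose-response curve. GI50 marks 50% less growth.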 Calls of active or inactive are those of the source. Rule as the data show it: active = GI50 up to about 1.1 µM and inactive = higher.

Assays:
Test in all cases: NCI-60 cell line screen, 48 h
786-0 = system: 786-0
A498 = system: A498
A549 = system: A549
ACHN = system: ACHN
BT-549 = system: BT-549
CAKI-1 = system: CAKI-1
CCRF-CEM = system: CCRF-CEM
COLO 205 = system: COLO 205
DLD-1 = system: DLD-1
DMS-114 = system: DMS-114
DMS-273 = system: DMS-273
DU-145 = system: DU-145
EKVX = system: EKVX
HCC 2998 = system: HCC 2998
HCT-116 = system: HCT-116
HCT-15 = system: HCT-15
HL-60 = system: HL-60
HOP-18 = system: HOP-18
HOP-62 = system: HOP-62
HOP-92 = system: HOP-92
HT-29 = system: HT-29
Hs-578T = system: Hs-578T
IGROV-1 = system: IGROV-1
K562 = system: K562
KM-20L2 = system: KM-20L2
KM12 = system: KM12
LOX IMVI = system: LOX IMVI
LXFL 529 = system: LXFL 529
M14 = system: M14
MCF7 = system: MCF7
MDA-MB-231 = system: MDA-MB-231
MDA-MB-435 = system: MDA-MB-435
MDA-N = system: MDA-N
MOLT-4 = system: MOLT-4
Malme-3M = system: Malme-3M
NCI-H226 = system: NCI-H226
NCI-H23 = system: NCI-H23
NCI-H460 = system: NCI-H460
NCI-H522 = system: NCI-H522
NCI/ADR-RES = system: NCI/ADR-RES
OVCAR-3 = system: OVCAR-3
OVCAR-4 = system: OVCAR-4
OVCAR-5 = system: OVCAR-5
OVCAR-8 = system: OVCAR-8
PC-3 = system: PC-3
RPMI-8226 = system: RPMI-8226
RXF 393 = system: RXF 393
SF-268 = system: SF-268
SF-295 = system: SF-295
SF-539 = system: SF-539
SK-MEL-28 = system: SK-MEL-28
SK-MEL-2 = system: SK-MEL-2
SK-MEL-5 = system: SK-MEL-5
SK-OV-3 = system: SK-OV-3
SN12C = system: SN12C
SNB-19 = system: SNB-19
SNB-75 = system: SNB-75
SNB-78 = system: SNB-78
SR = system: SR
SW-620 = system: SW-620
T47D = system: T47D
TK-10 = system: TK-10
U-251 = system: U-251
UACC-257 = system: UACC-257
UACC-62 = system: UACC-62
UO-31 = system: UO-31
XF498 = system: XF498
M19-MEL = system: M19-MEL

Measured: GI50

COc1cc(-c2ccc(Nc3ccccc3C(=O)O)c(OC)c2)ccc1Nc1ccccc1C(=O)O
active: HCT-116 0.792 µM | SR 0.557 µM
0.619 µM: HCT-15
inactive: 786-0 4.52 µM | A498 > 47.2 µM | A549 4.22 µM | ACHN 8.69 µM | BT-549 15.8 µM | CAKI-1 8.69 µM | CCRF-CEM 2.38 µM | COLO 205 48.3 µM | DLD-1 > 28 µM | DMS-114 25.4 µM | DMS-273 1.81 µM | DU-145 8.65 µM | EKVX 58.7 µM | HCC 2998 21.7 µM | HL-60 1.91 µM | HOP-18 > 100 µM | HOP-62 8.57 µM | HOP-92 41 µM | HT-29 31 µM | Hs-578T 11.3 µM | IGROV-1 21 µM | K562 1.35 µM | KM-20L2 > 56 µM | KM12 7.53 µM | LOX IMVI 1.28 µM | LXFL 529 1.68 µM | M14 26.5 µM | MCF7 5.08 µM | MDA-MB-231 13.7 µM | MDA-MB-435 8.59 µM | MDA-N 10 µM | MOLT-4 1.13 µM | Malme-3M 39.6 µM | NCI-H226 22.6 µM | NCI-H23 18.3 µM | NCI-H460 1.94 µM | NCI-H522 8.87 µM | NCI/ADR-RES > 46.2 µM | OVCAR-3 20.6 µM | OVCAR-4 28.2 µM | OVCAR-5 > 37.5 µM | OVCAR-8 8.95 µM | PC-3 2 µM | RPMI-8226 2.33 µM | RXF 393 21.2 µM | SF-268 11.4 µM | SF-295 11.9 µM | SF-539 5.45 µM | SK-MEL-28 33.8 µM | SK-MEL-2 19.3 µM | SK-MEL-5 16.6 µM | SK-OV-3 23.4 µM | SN12C 9.91 µM | SNB-19 10.2 µM | SNB-75 30.2 µM | SNB-78 32 µM | SW-620 7.38 µM | T47D 11.2 µM | TK-10 36.6 µM | U-251 3.3 µM | UACC-257 20.5 µM | UACC-62 1.46 µM | UO-31 13.6 µM | XF498 > 40.1 µM

Cc1nc2c(n1C)C(=O)c1nc(CBr)[nH]c(=O)c1C2=O
> 100 µM: HCT-15
active: SF-295 0.938 µM
inactive: A498 > 100 µM | A549 > 100 µM | ACHN > 100 µM | CCRF-CEM > 100 µM | COLO 205 51.5 µM | DLD-1 > 100 µM | DMS-114 75.9 µM | DMS-273 > 100 µM | EKVX 24.4 µM | HCT-116 > 100 µM | HL-60 38.7 µM | HOP-18 > 100 µM | HOP-92 > 100 µM | HT-29 39.4 µM | IGROV-1 > 100 µM | K562 > 100 µM | KM-20L2 > 100 µM | LOX IMVI 46.5 µM | LXFL 529 > 100 µM | M14 35.9 µM | M19-MEL > 100 µM | MOLT-4 > 100 µM | NCI-H23 > 100 µM | NCI-H460 > 100 µM | NCI-H522 > 100 µM | OVCAR-8 > 100 µM | RPMI-8226 > 100 µM | RXF 393 > 100 µM | SF-268 > 100 µM | SF-539 > 100 µM | SK-MEL-28 > 100 µM | SK-MEL-5 20.3 µM | SK-OV-3 75.7 µM | SN12C > 100 µM | SNB-19 > 100 µM | SW-620 > 100 µM | TK-10 > 100 µM | U-251 > 100 µM | UACC-62 > 100 µM | UO-31 > 100 µM | XF498 > 10 µM
